Here are results for three compounds from US5837548A, “Treatment of inflammation by inhibition of lipid body formation” (Beth Israel Hospital, priority 1995, dated 1998).

The test system of assay [1] is human neutrophils (PGE2 production). Kind of assay: PGE2 production by human neutrophils (priming, A23187 stimulation, ELISA). Format: cell-based. Here is the method:
FIG. 1B is a graph showing the effect of arachidonic acid (AA) and oleic acid (OA) on lipid body induction (black) and priming for enhanced prostaglandin E2 (PGE2) production (white) by human neutrophils. Neutrophils (10^6 /mL) were stimulated for one hour with arachidonic acid (3.7, 7.5, 15 μM) or oleic acid (2.5, 5, 10 μM). Lipid bodies were enumerated using light microscopy following osmium staining. The concentration of PGE2 in the supernatant was measured by ELISA after incubation with A23187 (0.5 μM) for 15 minutes at 37° C. Data are expressed as mean from 2-3 independent assays performed in duplicate.
(§1) After the incubation time, a sample was taken for lipid body enumeration and the cells were washed in Ca^++ /Mg^++ free HBSS. Leukocytes were resuspended in 1 mL of HBSS containing Ca^++ /Mg^++ and then stimulated with A23187 (0.5 μM) for 15 min. The reaction was stopped on ice, and the samples were centrifuged at 1500 rpm for 10 min at 4° C. The concentrations of PGE2, LTB4, and LTC4 in the supernatants were assayed by ELISA according to the manufacturer's instructions (Cayman, Ann Arbor, Mich.).

Assay [2] relates to peritoneal macrophages from COX 1 knockout mice. Description: lipid body formation in peritoneal macrophages from cyclooxygenase-1 knockout mice. Format: cell-based, mouse. To be noted: for induction of lipid body formation in macrophages: cyclooxygenase-1 deficient mice, AA 3.7-15 μM or OA 2.5-10 μM. How it is done:
(§2) FIG. 4 is a graph illustrating the effects of arachidonic acid and oleic acid on lipid body formation in peritoneal macrophages from wild type (+/+) and cyclooxygenase-1 knockout (-/-) mice. The agonists AA and OA are represented by the square and circle symbols, respectively. The closed symbols represent the wild type mice; the open symbols represent the cyclooxygenase-1 knockout mice. Macrophages (10^6 /mL) were incubated with the agonists AA and OA at varying concentrations for an hour. Lipid bodies were enumerated using light microscopy following osmium staining. Each point represents the mean±SEM from fifty consecutively scanned macrophages.
(§3) Cyclooxygenase-1 and cyclooxygenase-2 knockout mice were generated as recently described (Morham et al., Cell 83:473-482 (1995); Langenbach et al., Cell 83:483-492 (1995)). All experiments were carried out with male 8-12 week old mice. Macrophages from cyclooxygenase genetically deficient mice and wild-type litter mates were obtained by lavaging the peritoneal cavity with 5 mL of cold RPMI containing heparin (20 IU/mL).
(§4) ^1 Peritoneal macrophages from wild type and COX 1 knockout mice were
(§5) pretreated with the NSAID or vehicle for 1h and then stimulated with
(§6) arachidonic acid (AA, 15 μM) or vehicle for 1h. Results are mean ±
(§7) SEM from fifty consecutively counted macrophages. The statistically

Assay [3] relates to wild-type mouse neutrophils. Kind of assay: lipid body formation in wild-type mouse neutrophils. Particulars: AA 3.7-15 μM or OA 2.5-10 μM. Format: cell-based.
For the next assay, the system named is human neutrophils. Kind of assay: cis-unsaturated fatty acid-induced lipid body formation in human neutrophils (osmium staining, light microscopy enumeration). The assay is classed as cell-based. To be noted: human neutrophils. How it is done: Neutrophils were purified from fresh human blood obtained by venipuncture from healthy adult volunteers and collected into acidified citrate. After addition of 6% dextran 70 (McGaw, Irvine, Calif.), RBCs were allowed to sediment for 1 hour at room temperature. The leukocyte-rich supernatant was overlaid onto an equal volume of Ficoll-Paque gradient (Piscataway, N.J.), and centrifuged at 400×g for 20 min. […] Residual RBCs were lysed with hypotonic saline.
Human leukocytes (10^6 cells/mL) were incubated with varying concentrations of arachidonic acid (AA), oleic acid (OA) or vehicle at 37° C. in a 5% CO2 /95% O2 atmosphere, and after 1 hour leukocytes (10^5 cells per slide) were cytocentrifuged (550 rpm, 5 min) onto glass slides. During inhibitory studies, neutrophils were pretreated for 1 hour with varying concentrations of enzyme inhibitors, protein synthesis inhibitors, or vehicle as indicated. When PKC inhibitors were used, the pre-incubation time was reduced to 30 minutes to avoid toxic effects to the cells. […] Stock solutions for A23187, D609, U-73122, and indomethacin were prepared in DMSO and stored at -20° C. Aliquots were diluted in Ca^++ /Mg^++ fee HBSS to the indicated concentration immediately prior to use. […] The morphology of fixed cells was observed, and lipid bodies were enumerated with phase contrast microscopy and a 100× objective lens in 50 consecutively scanned leukocytes.
Results were expressed as mean±SEM and were analyzed statistically by means of the analysis of variance followed by the Newman-Keuls-Student test with the level of significance set at p<0.05. Correlation coefficients were determined by linear regression, and correlation analysis was performed by Fisher's r to z transformation with the level of significance set at p<0.05.
^1 Neutrophils (10^6 /ml) were pretreated with protein kinase C
(actinomycin D, cycloheximide) for 30 min or with phospholipase C
inhibitors (D609, U73122) for 1 h. The cells were then stimulated with
vehicle, arachidonic acid (15 μM), or oleic acid (10 μM), for 1 h.
Results are mean ± SEM from fifty consecutively counted neutrophils.
Statistically significant differences between the agonist alone and the
inhibitor are represented by an asterisk(*). Percent inhibition has been
calculated after subtracting out the basal number of lipid bodies/PMN
present prior to stimulation.
^1 Neutrophils (10^6 /ml) were pretreated with the NSAID or
vehicle for 1 h then stimulated with vehicle, arachidonic acid, or oleic
± SEM from fifty consecutively counted neutrophils. Statistically
significant differences between the agonist alone and the NSAID are
represented by an asterisk (*). Percent inhibition has been calculated
after subtracting out the basal number of lipid bodies/PMN present prior

In assay [4] the test system is macrophages from cyclooxygenase-2 deficient mice. Description: lipid body formation in macrophages from cyclooxygenase-2 deficient mice. Format: cell-based, mouse. To be noted: AA 3.7-15 μM or OA 2.5-10 μM. Here is the method: as §3
The subject of assay [5] is peritoneal macrophages from wild type mice. Description: lipid body formation in peritoneal macrophages from wild type mice. Particulars: for induction of lipid bodies in macrophages: wild-type mouse, AA 3.7-15 μM or OA 2.5-10 μM. The assay is classed as cell-based, mouse. Here is the method:
as §2, §3, §4, §5, §6, §7

For assay [6], the system named is human eosinophils (PGE2 production). Kind of assay: PGE2 production by human eosinophils (priming, A23187 stimulation, ELISA). Particulars: 10 μg/mL pretreatment. Format: cell-based. How it is done: FIG. 2B is a graph illustrating the effect of arachidonic acid (AA) and oleic acid (OA) on induction of lipid body formation (black) and priming effects (white) for enhanced prostaglandin E2 (PGE2) by human eosinophils. Eosinophils (10^6 /mL) were stimulated for one hour with arachidonic acid (3.7, 7.5, 15 μM) or oleic acid (2.5, 5, 10 μM). Lipid bodies were enumerated using light microscopy following osmium staining. The concentration of PGE2 in the supernatant was measured by ELISA after incubation with A23187 (0.5 μM) for 15 minutes at 37° C. Data are expressed as mean from 2 independent assays performed in duplicate.
as §1
A general note: In an ELISA, binding on a coated surface is turned into a signal by an enzyme label.

Setting [7] is: Homo sapiens, Neutrophil, 1 h, read-out: fold increase in production of PGE2.
Where [8] appears, read: staurosporine 0.1-1.0 μM, aspirin 10 μg/mL, others as in Tables 1 and 2.

With `CCCCC/C=C\C/C=C\C/C=C\C/C=C\CCCC(=O)O` [arachidonic acid], in assay [1] (setting [7]), the fold induction at 15 µM worked out at 3.5. For the same compound, the “increase in production of PGE2” value in assay [1] (neutrophils) is on record as “dose-dependent increase in production”. The “lipid bodies (mean ± SEM)/macrophage” value in assay [2] (COX 1 knockout, AA 15 μM alone, 1 h, no NSAID) is 7.0 ± 0.5 lipid bodies/macrophage; in assay [5] (wild type, AA 15 μM alone, 1 h, no NSAID) it was 6.8 ± 0.3 lipid bodies/macrophage. The “induction of lipid body formation in macrophages” value in assay [2] and in assay [4] was “induced lipid body formation” throughout. Moreover, the “induction of lipid bodies in neutrophils” value in assay [3] is on record as “can also be stimulated in vitro to produce lipid bodies”. Also, in the assay on human neutrophils, the “increase in number of lipid bodies” value was “dose-dependent increase in the number of lipid bodies”. In assay [5], the “induction of lipid bodies in macrophages” value is listed as “can also be stimulated in vitro to produce lipid bodies”.

Take `CC(=O)Oc1ccccc1C(=O)O` [aspirin]: the “inhibition of PGE2 production” value in assay [1] (neutrophils, 10 μg/mL pretreatment) is “inhibited PGE2 production”. In addition, in the assay on human neutrophils (setting [8]), the “inhibition of arachidonic acid-induced lipid body formation” value is “significantly inhibited” and the “inhibition of oleic acid-induced lipid body formation” value is on record as “significantly inhibited”. In addition, in assay [6], the “inhibition of PGE2 production” value was “inhibited PGE2 production”.

Consider `CCCCCCCC/C=C\CCCCCCCC(=O)O` [oleic acid], for which the fold induction at 10 µM in assay [1] (setting [7]) was found to be 2. For the same compound, in assay [1] (neutrophils), the “increase in production of PGE2” value was “dose-dependent increase in production”. Moreover, the “correlation (r) between number of lipid bodies and priming for enhanced PGE2 release” value in assay [1] (oleic acid, leukocytes, p<0.01) is recorded as 0.99. The “induction of lipid body formation in macrophages” value in assay [2] and in assay [4] was “induced lipid body formation” in each case. Also, in assay [3], the “induction of lipid bodies in neutrophils” value is recorded as “can also be stimulated in vitro to produce lipid bodies”. In addition, the “increase in number of lipid bodies” value in the assay with human neutrophils is reported as “dose-dependent increase in the number of lipid bodies”. The “induction of lipid bodies in macrophages” value in assay [5] is reported as “can also be stimulated in vitro to produce lipid bodies”.
